Results published in US9655965B2, “Radiosensitizer compounds for use in combination with radiation” (priority 2013, dated 2017).
“Also recorded” adds a separate entry of the source.

Columns and labels:
[1] = system: human cervical cancer (HeLa) cells; test: In vitro radiosensitizing effect, MTT assay 6 days after X-ray, HeLa; type: cell-based; conditions: 12-hr treatment, MTT at 6 days
Description: (§1) Dibromo-diamino-benzene (Dibromo-phenylenediamine, Compound B) was obtained from TCI—America. Diiodo-diaminobenzene (Compound C) were synthesized, purified and crystallized in our laboratory, and the structures and purity were examined by NMR and mass spectrometry. MEM and fetal bovine serum (FBS), penicillin G and streptomycin were obtained from Hyclone Laboratories (UT, USA). Stock solution of cisplatin was freshly prepared in ultrapure water or saline, and stock solutions of Compounds A, B, C, D were prepared in pure ethanol, where the final concentration of ethanol was ≦1% when treated to cells.
(§2) A human skin diploid fibroblast (GM05757 cell line) was obtained from the Coriell Cell Repository directly, while the human cervical cancer cell line (HeLa, ATCC#: CCL-2; or ME-180), human ovarian cancer cell line (NIH:OVCAR-3, ATCC#: HTB-161) and human lung cancer cell line (A549, ATCC#: CCL-185™), together with RPMI 1640, F-12K, McCoy's 5 A and L-15 culture media, were obtained from the American Type Culture Collection (ATCC) directly. Fetal bovine serum (FBS) was obtained from Hyclone Laboratories (UT, USA). The GM05757 normal cells and HeLa cells were cultivated with MEM (Hyclone) supplemented with 10% FBS, 100 units/mL penicillin G and 100 μg/mL streptomycin (Hyclone). The complete growth media for ME-180, NIH:OVCAR-3, A549 and MDA-MB-231 cells were the ATCC-formulated McCoy's 5 A Medium supplemented with 10% FBS, RPMI 1640 medium with 20%, F-12K medium with 10% FBS, and L-15 Medium (Leibovitz) with 10% FBS, respectively. The cells were maintained at 37° C. in a humidified atmosphere containing 5% CO2.
(§3) The radiosensitizing effects of RSCs on cell viability were determined by the 3-[4,5-dimethylthiazol-2-yl]-2,5-diphenyl tetrazoliumbromide (MTT) assay. Cells were cultured in 96-well plates (5×10^3 cells/well) for 24 h. […] The surviving fraction was determined by measuring the absorbance at 540 nm (570 nm for SDS solubilization) using a Multiskan Spectrum UV/Vis microplate reader (Thermo Scientific), which is directly proportional to the number of viable cells.

[2] = system: various human cancer cells; test: In vitro radiosensitizing effects in various human cancer cells (FIG. 14-21); type: cell-based; conditions: 12 hr treatment, then various doses of 225 keV X-ray
Description: as §1, §2
(§4) The radiosensitizing effects of RSCs on cell viability were determined by the 3-[4,5-dimethylthiazol-2-yl]-2,5-diphenyl tetrazoliumbromide (MTT) assay. Cells were cultured in 96-well plates (5×10^3 cells/well) for 24 h. The culture medium was replaced by fresh culture medium and incubated for 12 h with varying drug concentrations. The cells were then irradiated by 225 kV X-ray (PRECISION X-RAD IR 225) at a dose rate of 2 Gy/min with various X-ray doses. After irradiation, the cells were incubated for 6 days. The MTT assay of cell viability was then conducted. Briefly, 100 μl new medium without phenol red containing 1.2 mM MTT (sigma) (i.e., adding 10 μl 12 mM MTT stock solution in PBS) were added to each well and incubated for 4 h. The medium was then removed, and the formazan crystals solubilized by 100 μL/well DMSO (or alternatively by 100 μl/well SDS and incubated for another 4 h). The surviving fraction was determined by measuring the absorbance at 540 nm (570 nm for SDS solubilization) using a Multiskan Spectrum UV/Vis microplate reader (Thermo Scientific), which is directly proportional to the number of viable cells.

[3] = system: human normal cells (GM05757); test: In vitro toxicity in human normal cells, 72-hr treatment, MTT assay; type: cell-based; conditions: GM05757, 72-hr treatment, without ionizing radiation; for toxicity toward human normal cells: 0-50 μM cisplatin, 0-200 μM compounds
Description: as §1, with “TCI-America.” for “TCI—America.”
(§5) A human skin diploid fibroblast (GM05757 cell line) was obtained from the Coriell Cell Repository directly. Fetal bovine serum (FBS) was obtained from Hyclone Laboratories (UT, USA). The GM05757 normal cells were cultivated with MEM (Hyclone) supplemented with 10% FBS, 100 units/mL penicillin G and 100 μg/mL streptomycin (Hyclone). The cells were maintained at 37° C. in a humidified atmosphere containing 5% CO2.
as §4, with “for 72” for “for 12”, “concentrations.” for “concentrations. The cells were then irradiated by 225 kV X-ray (PRECISION X-RAD IR 225) at a dose rate of 2 Gy/min with various X-ray doses. After irradiation, the cells were incubated for 6 days.”

[4] = system: human normal cells (GM05757); test: In vitro radiation-induced toxicity in human normal cells, MTT assay 12 days after X-ray; type: cell-based; conditions: GM05757, 12-hr treatment, then 0-10 Gy 225 keV X-ray, MTT at 12 days
Description: as §1, with “TCI-America.” for “TCI—America.”
as §5
as §4, with “for 12” for “for 6”, “h. […]” for “h. The medium was then removed, and the formazan crystals solubilized by 100 μL/well DMSO (or alternatively by 100 μl/well SDS and incubated for another 4 h).”

[5] = system: cisplatin-resistant human ovarian cancer (HTB-161) cells; test: In vitro radiosensitizing effect, MTT assay 6 days after X-ray, HTB-161; type: cell-based; conditions: MTT at 6 days
Description: as §1, with “cells. […]” for “cells.”
as §3, with “assay.” for “assay. Cells were cultured in 96-well plates (5×10^3 cells/well) for 24 h.”

[6] = [Lu, 2010]; cited from earlier work
[7] = system: human cervical cancer (ME-180) cells; test: In vitro radiosensitizing effect, MTT assay 6 days after X-ray, ME-180; type: cell-based
Description: as §1, §2, §4

mice = conditions: literature; cited from earlier work

Molecule | enhancement of radiosensitivity of cancer cells to X-ray ([1]; 0-10 Gy 225 keV X-ray) | killing of cancer cells in combination with radiation [2] | toxicity toward human normal cells [3] | radiation toxicity in human normal cells [4] | further results
Nc1cc(Cl)c(Cl)cc1N [Compound A, 4,5-dichloro-1,2-phenylenediamine] | significant enhancement in the radiosensitivity | enhanced the killing of cancer cells in a radiation dose dependent manner and in synergy with radiation; also recorded: enhances the effectiveness of ionizing radiation to kill tumor cells | essentially no toxicity; also recorded: little toxicity up to 200 μM | no radiation toxicity | enhancement of radiosensitivity of cisplatin-resistant cancer cells to X-ray ([5]; HTB-161, 12-hr treatment, 0-10 Gy 225 keV X-ray): significant enhancement in the radiosensitivity
Nc1cc(I)c(I)cc1N [Compound C, 4,5-diiodo-1,2-phenylenediamine] |  | enhanced the killing of cancer cells in a radiation dose dependent manner and in synergy with radiation; also recorded: enhances the effectiveness of ionizing radiation to kill tumor cells | essentially no toxicity; also recorded: little toxicity up to 200 μM |  | enhancement of radiosensitivity of cancer cells to X-ray ([1]; 0 and 20 Gy 225 keV X-ray): significant enhancement in the radiosensitivity
O=c1[nH]c(=O)n([C@H]2C[C@H](O)[C@@H](CO)O2)cc1I [IdU, iododeoxyuridine] |  |  |  |  | DET reaction with epre− among halopyrimidines [6]: strongest DET reaction among the halopyrimidines
bromo-(1,2-)diamino-benzene [Compound D] | significant enhancement in the radiosensitivity | enhanced the killing of cancer cells in a radiation dose dependent manner and in synergy with radiation; also recorded: enhances the effectiveness of ionizing radiation to kill tumor cells |  |  | enhancement of radiosensitivity of cancer cells to X-ray ([7]; ME-180, 12-hr treatment, 0-10 Gy 225 keV X-ray, MTT at 6 days): significant enhancement in the radiosensitivity; killing of cancer cells ([7]; ME-180, 50 Gy x-ray with about 100 μM compound, about 20% survived without any RSC): early all cancer cells were killed; enhancement of radiosensitivity of cisplatin-resistant cancer cells to X-ray ([5]; HTB-161, 0-7.5 Gy 225 keV X-ray): significant enhancement in the radiosensitivity
cis-Pt(NH3)2Cl2 [cisplatin, reference compound] |  |  | highly toxic; also recorded: severe toxicity even at low concentrations of ≦30 μM | essentially no radiation toxicity | IC50 ([3]; read-out: IC50 (cell survival rate 50% with respect to untreated cells)): ~10 µM; LD50 (mice): 13.5 mg/kg
